{"source": "paper PMC8113290", "about": "“[^11C]MODAG-001—towards a PET tracer targeting α-synuclein aggregates” (European Journal of Nuclear Medicine and Molecular Imaging, 2020)", "key": {"[1]": {"test": "In vivo PET imaging in mice (brain uptake)", "settings": "mouse, i.v. injection, one exemplary animal", "protocol": "PET imaging was performed on a dedicated small animal Inveon PET scanner (Siemens Healthcare, Knoxville (TN), USA). Mice and rats were anesthetized with 1.5–1.7% isoflurane evaporated in 100% oxygen at a flow rate of 0.8 L/min, which was maintained during the entire experiment. After a tail vein catheter was placed, the animal was positioned in the center of the field of view (FOV) on an MR-compatible PET bed that was connected to a feedback temperature control unit set to 37 °C. Mice were injected intravenously (i.v.) with 17 ± 2 MBq [^11C]MODAG-001 (n = 3) or 12 ± 1 MBq (d3)-[^11C]MODAG-001 (n = 5) 5 s after the start of the PET acquisition. […]\nWhole body mouse PET scans were coregistered to the whole body MR scan, which was sequentially acquired after the PET scan, and the volumes of interest (VOIs) of the lung, liver, heart, brain, and kidneys were drawn by hand based on the MR anatomical information using PMOD software (version 3.2; PMOD Technologies, Zürich, Switzerland). VOIs of different brain regions were extracted using the mouse or rat brain atlas provided by PMOD [10-12], and tissue time activity curves (TACs) were calculated and are expressed as standardized uptake values (SUVs), which were calculated as follows: SUV(t) = radioactivity concentration (kBq/mL of the organ)/(injected dose [kBq]/body weight [g]). […]"}, "[2]": {"test": "Radio-metabolite analysis in mouse plasma and brain by radio-HPLC", "type": "in vivo", "settings": "for M3 % / M3 %ID: metabolite 3; for M2* % / M2* %ID: mixture of various metabolites", "protocol": "For metabolite analysis, mice were i.v. injected with 91 ± 24 MBq of [^11C]MODAG-001 (n = 4 per time point) or 120 ± 41 MBq of (d3)-[^11C]MODAG-001 (n = 3 per time point) using a tail vein catheter. Five and 15 min after injection, plasma and brain homogenates were analyzed using radio-HPLC (for detailed information see supplemental material and methods section).\nA 400 µL blood sample was collected by heart puncture five or 15 minutes after tracer injection. The blood was centrifuged at 17,000 x g and 4 °C for two minutes, and the plasma was transferred to a 1.5 mL reaction tube on ice for further analysis. After blood collection, mice were transcardially perfused (10 mL/min) with 20 mL of ice-cold PBS, and the brain of each mouse was removed from the skull. The brain was transferred to a glass tube (2 mL Dounce tissue grinder set, Sigma Aldrich Chemie GmbH) containing 0.5 mL of ice-cold PBS, sequentially homogenized using large and small clearance pestles and transferred to a 1.5 mL reaction tube on ice for further analysis. Plasma or brain homogenate was mixed 1:1 with acetonitrile and briefly centrifuged. After two minutes of incubation on ice, each mixture was centrifuged at room temperature for 1.5 minutes at 12,000 x g (MiniSpin®, Eppendorf AG) to remove precipitated proteins. The supernatant was subjected to reversed-phase HPLC on a Luna Phenyl Hexyl column (5 µm, 100 Å, 300 mm x 4.6 mm, Phenomenex) equipped with a radioactivity detector with 0.1 % trifluoroacetic acid in water/acetonitrile (70:30) at an isocratic flow rate of 1.5 mL/min.\nFor data analysis, the median of ten consecutive data points was calculated to remove noise; data were corrected for radioactive decay to time zero, defined as start of the HPLC of the five minute brain sample. This time zero radioactivity was plotted against time using Origin software (OriginLab Corporation, version 9.1G, Northampton, MA, USA). The area under the curve was calculated in % using the peak analyzer function and scaled up that the peaks add up to 100 %. The area under the curve was transformed into radioactivity values using a standard of [^11C]MODAG-001 with known radioactivity also corrected for decay and expressed as % injected radioactivity dose (%ID) per gram of brain tissue or per plasma in one mL of blood."}, "[3]": {"biological_target": "T1, αSYN fibrils inoculated into the right striatum (Homo sapiens, UniProt P37840)", "T1 construct": "made in house; host or cells: E. coli BL21(DE3)pLys", "test": "In vivo PET imaging in αSYN fibril-inoculated rats", "set-up": "species or system rat", "settings": "for mean distribution volume ratio (DVR)-1 40-60min (binding potential): 4 days post inoculation", "protocol": "Rats were inoculated with αSYN fibrils (4 μL, 30 μM) into the right striatum (see supplementary material and methods section for a detailed description) and scanned 4 days post-inoculation with 23 ± 1 MBq of (d3)-[^11C]MODAG-001.\nData acquisition, correction, framing and reconstruction, volume of interest (VOI) definition, and determination of binding parameters are described in detail in the supplementary material and methods section.\nRats were allowed to adapt for two weeks in the animal facility before fibril injection. Three adult female rats were anaesthetized with an intraperitoneal (i.p.) injection of a mixture of fentanyl (0.005 mg/kg), midazolam (2 mg/kg), and medetomidine (0.15 mg/kg) at 1 mL/kg. The head of each rat was shaved, and the animal was placed into a stereotaxic frame. A central incision was made to expose the bregma and lambda. A 5 µL syringe needle (Hamilton Company, Reno (NV), USA) was enclosed with a glass capillary (inner diameter, 50 µm, Hilgenberg GmbH, Malsfeld, Germany). αSYN fibrils (4 µL, 30 µM) were injected using a stereotaxic injector (Stoelting, Wood Lane, IL, USA) through a drill hole into the right striatum (ML= -3.2 mm, AP = 0.0 mm, DV = -4.8 mm) according to the stereotaxic atlas of Paxinos and Watson [9][. Based on the volume of the right striatum (0.04 cm^3), the concentration of inoculated fibrils was calculated as 2.8 µM. As a negative control, 4 µL of vehicle (50 mM Tris base, 100 mM sodium chloride, 0.02 % sodium azide, pH 7.0) were injected into the contralateral striatum. A total fibril volume of 4 µL was obtained by the injection of 0.4 µL every 60 seconds. To allow for diffusion of the fibrils into the tissue, the needle was left in this position for five minutes. […]\nWhole body mouse PET scans were coregistered to the whole body MR scan, which was sequentially acquired after the PET scan, and the volumes of interest (VOIs) of the lung, liver, heart, brain, and kidneys were drawn by hand based on the MR anatomical information using PMOD software (version 3.2; PMOD Technologies, Zürich, Switzerland). VOIs of different brain regions were extracted using the mouse or rat brain atlas provided by PMOD [10-12], and tissue time activity curves (TACs) were calculated and are expressed as standardized uptake values (SUVs), which were calculated as follows: SUV(t) = radioactivity concentration (kBq/mL of the organ)/(injected dose [kBq]/body weight [g]). […] Distribution volume ratio 1 (DVR-1) values were calculated from individual TACs from 40 to 60 minutes, using the vehicle-injected striatum as a reference region, with the following formula: activity in fibril inoculated right striatum/activity in vehicle injected left striatum) - 1. […]"}, "[4]": {"test_system": "αSYN and Aβ1–42 fibrils", "set-up": "method as in PMID 29989823", "settings": "similar rat model, despite good cerebral uptake and high Am ref 30; cited from earlier work"}, "[5]": {"biological_target": "recombinant αSYN fibrils", "settings": "cited from earlier work"}, "[6]": {"settings": "mouse brain, 5 min after injection"}, "[7]": {"settings": "mouse brain, 5 min after injection, parent compound"}, "[8]": {"settings": "mouse brain, 15 min after injection, metabolite 1"}, "[9]": {"settings": "mouse brain, 15 min after injection"}, "[10]": {"settings": "mouse brain, 15 min after injection, parent compound"}, "[11]": {"settings": "mouse plasma, 5 min after injection, metabolite 1"}, "[12]": {"settings": "mouse plasma, 5 min after injection"}, "[13]": {"settings": "mouse plasma, 5 min after injection, parent compound"}, "[14]": {"settings": "mouse plasma, 15 min after injection, metabolite 1"}, "[15]": {"settings": "mouse plasma, 15 min after injection"}, "[16]": {"settings": "mouse plasma, 15 min after injection, parent compound"}}, "note": "Read-outs that look alike come from different tables or passages of the source. Marks after values point to notes of the source that are not given here.", "data": [{"smiles": "[2H]C([2H])([2H])N([11CH3])c1ccc(-c2cc(-c3ccnc(Br)c3)[nH]n2)cc1", "note": "[(d3)-[^11C]MODAG-001]", "values": [{"measurement": "peak standardized uptake value (SUV) in brain", "setting": "[1]", "value": 1.7}, {"measurement": "M1 %ID", "setting": "[2]; mouse brain, 5 min after injection, metabolite 1", "value": "0.4* %ID per g brain tissue"}, {"measurement": "M1 %", "setting": "[2]; mouse brain, 5 min after injection, metabolite 1, % of radioactivity", "value": 5, "unit": "%"}, {"measurement": "M3 %", "setting": "[2]; [6]", "value": 2, "unit": "%"}, {"measurement": "M3 %ID", "setting": "[2]; [6]", "value": "0.2* %ID per g brain tissue"}, {"measurement": "P %", "setting": "[2]; [7]", "value": 93, "unit": "%"}, {"measurement": "P %ID", "setting": "[2]; [7]", "value": 8.8, "unit": "%ID per g brain tissue"}, {"measurement": "M1 %", "setting": "[2]; [8]", "value": 5, "unit": "%"}, {"measurement": "M1 %ID", "setting": "[2]; [8]", "value": "0.4* %ID per g brain tissue"}, {"measurement": "M3 %", "setting": "[2]; [9]", "value": 8, "unit": "%"}, {"measurement": "M3 %ID", "setting": "[2]; [9]", "value": "0.7* %ID per g brain tissue"}, {"measurement": "P %", "setting": "[2]; [10]", "value": 87, "unit": "%"}, {"measurement": "P %ID", "setting": "[2]; [10]", "value": 7.2, "unit": "%ID per g brain tissue"}, {"measurement": "M1 %", "setting": "[2]; [11]", "value": 21, "unit": "%"}, {"measurement": "M1 %ID", "setting": "[2]; [11]", "value": "0.6^# %ID per plasma in 1 mL blood"}, {"measurement": "M3 %", "setting": "[2]; [12]", "value": 6, "unit": "%"}, {"measurement": "M3 %ID", "setting": "[2]; [12]", "value": "0.1^# %ID per plasma in 1 mL blood"}, {"measurement": "M2* %", "setting": "[2]; [12]", "value": 34, "unit": "%"}, {"measurement": "M2* %ID", "setting": "[2]; [12]", "value": "0.9^# %ID per plasma in 1 mL blood"}, {"measurement": "P %", "setting": "[2]; [13]", "value": 39, "unit": "%"}, {"measurement": "P %ID", "setting": "[2]; [13]", "value": "1.0^# %ID per plasma in 1 mL blood"}, {"measurement": "M1 %", "setting": "[2]; [14]", "value": 30, "unit": "%"}, {"measurement": "M1 %ID", "setting": "[2]; [14]", "value": "0.8^# %ID per plasma in 1 mL blood"}, {"measurement": "M3 %", "setting": "[2]; [15]", "value": 4, "unit": "%"}, {"measurement": "M3 %ID", "setting": "[2]; [15]", "value": "0.1^# %ID per plasma in 1 mL blood"}, {"measurement": "M2* %", "setting": "[2]; [15]", "value": 36, "unit": "%"}, {"measurement": "M2* %ID", "setting": "[2]; [15]", "value": "1.0^# %ID per plasma in 1 mL blood"}, {"measurement": "P %", "setting": "[2]; [16]", "value": 30, "unit": "%"}, {"measurement": "P %ID", "setting": "[2]; [16]", "value": "0.8^# %ID per plasma in 1 mL blood"}, {"measurement": "mean distribution volume ratio (DVR)-1 40-60min (binding potential)", "setting": "[3]; 70% automatic isocontour VOI, contralateral side as reference", "value": "0.44 ± 0.21"}, {"measurement": "peak SUV", "setting": "[3]; left striatum of fibril-inoculated rats", "value": "2.1 ± 0.1"}, {"measurement": "peak SUV", "setting": "[3]; non-injected control rat", "value": 2.1}, {"measurement": "mean distribution volume ratio (DVR)-1 40-60min (binding potential)", "setting": "[3]; whole striatum VOI, contralateral vehicle-injected striatum as reference", "value": "0.14 ± 0.1"}]}, {"smiles": "CN([11CH3])c1ccc(-c2cc(-c3ccnc(Br)c3)[nH]n2)cc1", "note": "[[^11C]MODAG-001]", "values": [{"measurement": "peak standardized uptake value (SUV) in brain", "setting": "[1]", "value": 1.4}, {"measurement": "tissue uptake at 5 min", "setting": "[2]; intravenous, mouse brain, 5 min after injection, parent compound, read-out: P %ID", "value": 10.5, "unit": "%ID/g"}, {"measurement": "tissue uptake at 15 min", "setting": "[2]; intravenous, mouse brain, 15 min after injection, parent compound, read-out: P %ID", "value": 5.3, "unit": "%ID/g"}, {"measurement": "P %", "setting": "[2]; [7]", "value": 91, "unit": "%"}, {"measurement": "P %ID", "setting": "[2]; [7]", "value": "10.5* %ID per g brain tissue"}, {"measurement": "P %", "setting": "[2]; [10]", "value": 81, "unit": "%"}, {"measurement": "P %ID", "setting": "[2]; [10]", "value": "5.3* %ID per g brain tissue"}, {"measurement": "P %", "setting": "[2]; [13]", "value": 26, "unit": "%"}, {"measurement": "P %ID", "setting": "[2]; [13]", "value": "0.8^# %ID per plasma in 1 mL blood"}, {"measurement": "P %", "setting": "[2]; [16]", "value": 24, "unit": "%"}, {"measurement": "P %ID", "setting": "[2]; [16]", "value": "0.7^# %ID per plasma in 1 mL blood"}]}, {"smiles": "CN(c1ccc(/C=C/c2nc3ccccc3o2)cc1)S(=O)(=O)c1ccccc1[18F]", "note": "[[^18F]2FBox]", "values": [{"measurement": "binding in vivo", "setting": "[4]", "value": "no binding was observed in vivo"}]}, {"smiles": "CN(C)c1ncc(C=Cc2nc3ccc(OCCF)cc3o2)s1", "note": "[[^18F]BF-227]", "values": [{"measurement": "Kd", "setting": "[5]; recombinant αSYN fibrils ref 26", "value": 9.6, "unit": "nM"}, {"measurement": "binding in vivo", "setting": "[4]", "value": "no binding was observed in vivo"}]}, {"smiles": "O=[N+]([O-])c1ccc2c(c1)Sc1cc(OC/C=C/I)ccc1N2", "note": "[[^125I]SIL23]", "values": [{"measurement": "Kd", "setting": "[5]; recombinant αSYN fibrils ref 24", "value": 148, "unit": "nM"}]}]}
